US20110081405A1, “Zeolite Formulation And Use Thereof For The Prevention And Therapy Of Diseases Caused By Infections With Herpes Simplex Virus Type 1 And Type 2” (priority 2008, published 2011)

How the values were obtained:
HSV-2 (strain G) = assay: Viral plaque inhibition assay, zeolite coincubated with HSV-2, supernatants added to cells; type: cell-based; details: keratinocytes, supernatants of HSV-2 coincubated 18 hours with 5 μg/ml zeolite or 50 μg/ml Acyclovir, Mordenite 0.1-0.5 μm, P, X, A 0.5-5 μm
Protocol: (§1) Testing of Antiviral Activities of Synthetic Zeolites by the Viral Plaque Inhibition Assay—the Antiviral Activity of Zeolites when Coincubated with HSV In Vitro
(§2) Epidermal cell cultures of fibroblasts and keratinocytes were grown in vitro from healthy skin samples, remnants from operations. Fibroblast cultures were grown in Dulbecco modified Eagle's medium (DMEM) containing Glutamax I (L-alanin-L-glutamine) and sodium pyruvate, […] and pyridoxine, supplemented with 10% fetal calf serum (FCS), 0.25 μg gentamycin and 100 UI/L penicillin. Keratinocytes are grown in a mixture of DMEM, Hams F12 in the 3:1 ratio with the addition of Glutamax I, complemented with 9% of FCS, epidermal growth factor (EGF), insulin, hydrocortisone, triiodothyronine, adenine, and antibiotics. The antiviral effect was determined on primary cells (primary fibroblasts and keratinocytes) grown in vitro from the explants of healthy skin, and also on cell lines: fibroblasts cell line MRC-5, HEp-2 cell line, and Vero cell line.
(§3) MRC-5, Vero, HEp-2, and keratinocyte cell lines were all obtained from the American Type Culture Collection-ATCC, and grown in T-75 flasks at 37° C. in a humidified incubator with 5% CO2.
(§4) HSV-1 (strain F) and HSV-2 (strain G), both obtained from the ATCC, were propagated in HEp-2 cells and their titres checked in same cells (H. Kirchner, C. Kleinicke, H. Northoff. J. Gen. Virol. 1977, 37, 647.). 0.1, 0.5, 1, 2, 4, or 5 Multiplicity of infection (MOI) of HSV-1 or HSV-2 was used to infect Vero cells, keratinocyte cell lines and MRC-5 cell lines, as described below.
(§5) Synthetic zeolites: A, Mordenite, P and X were tested in vitro for an anti HSV activity. Mordenite was used in two characteristic size of particles (0.1-0.5 μm and 0.5-5 μm) and other zeolites in 0.5-5 μm particle size. Zeolites were used in the concentrations of 5, 50, 500 ng/ml; 1, 5, 50, 100, 500 μg/ml; 1, 2, 10, 50 mg/ml in growth medium.
(§6) The ability of HSV preincubated with zeolite to infect cells permissive to infection (permissive cells) and cell lines was tested in in vitro experiments.
(§7) Viral stock containing the HSV-1 or HSV-2 (in MOI described above), diluted in a minimal volume of growth medium containing 5% FCS was used for the coincubation with zeolite for 3-20 hours at 4° C. The pH was maintained at all times to be at around 7.00. The sterile cuvettes containing zeolite+HSV were then centrifuged at 4.000 rpm/30 minutes to remove any particulate content in supernatants. Those supernatants (in 200 μl volume) were then added to the MRC-5, HEp-2, or Vero cell lines (grown in 24 well plate to 85% confluency) for 1 hour at 37° C. Parallel cultures contained cells infected with 200 μl of HSV-1 or HSV-2 under the same conditions as for the addition of supernatants (above). After one hour incubation, the growth medium containing 9% FCS was added, and cells cultivated for another 3 days (to examine for any CPE by light microscopy). Growth medium was then aspirated from the wells, and 100 μl of 0.2% crystal violet dye, diluted in phosphate buffered saline (PBS), was added to each well. After half-hour exposure to the dye, the wells were washed twice with double distilled water, air-dried, and the HSV plaques in cell cultures were counted using Olympus light microscope (magnification of 40×). The CPE produced by the infection of permissive cells was characterised by morphological changes in host cells e.g. cell rounding, swelling, detachment from the surface, formation of syncicia, plaques, caused by the increased number of newly formed viral particles. Plaques formed by HSV destroying cells were easily distinguished from unaffected cell layers.

HSV-1 (strain F) = assay: Viral plaque inhibition assay, zeolite coincubated with HSV-1, supernatants added to cells; type: cell-based; details: keratinocytes, supernatants of HSV-1 coincubated 18 hours with 5 μg/ml zeolite or 50 μg/ml Acyclovir, Mordenite 0.1-0.5 μm, P, X, A 0.5-5 μm
Protocol: as §1, §2, §3, §4, §5, §6, §7

[1] = background statement; cited from earlier work

Structure (SMILES)	decrease in percentage of number of HSV-2 plaques (HSV-2 (strain G); 0.1 MOI)	decrease in percentage of number of HSV-2 plaques (HSV-2 (strain G); 0.5 MOI)	decrease in percentage of number of HSV-2 plaques (HSV-2 (strain G); 1 MOI)	decrease in percentage of number of HSV-2 plaques (HSV-2 (strain G); 2 MOI)	decrease in percentage of number of HSV-2 plaques (HSV-2 (strain G); 4 MOI)	decrease in percentage of number of HSV-2 plaques (HSV-2 (strain G); 5 MOI)	decrease in number of HSV-1 plaques (HSV-1 (strain F); 0.1 MOI)	decrease in number of HSV-1 plaques (HSV-1 (strain F); 0.5 MOI)	decrease in number of HSV-1 plaques (HSV-1 (strain F); 1 MOI)	decrease in number of HSV-1 plaques (HSV-1 (strain F); 2 MOI)	decrease in number of HSV-1 plaques (HSV-1 (strain F); 4 MOI)	decrease in number of HSV-1 plaques (HSV-1 (strain F); 5 MOI)	biavalibility of the drug [1]
Nc1nc2c(ncn2COCCO)c(=O)[nH]1 [Acyclovir, 9-[(2-hydroxyetoxy)methyl]guanine]	73%	72%	70%	65%	48%	42%	71	71	61	58	43	36	–
CC(=O)OCC(CCn1cnc2cnc(N)nc21)COC(C)=O [famcyclovir]	–	–	–	–	–	–	–	–	–	–	–	–	77%
CC(C)[C@H](N)C(=O)OCCOCn1cnc2c(=O)[nH]c(N)nc21 [valacyclovir]	–	–	–	–	–	–	–	–	–	–	–	–	55%
